Reference: US8906925B2, “Pyrido[4,3-B]indoles containing rigid moieties” (Medivation Technologies, Inc., priority 2008, dated 2014)
“And” between values parts separate entries of the source, which are not always exact repeats. Identical values can stand only once. Like-named read-outs stand apart in the source and are kept apart here.

Assays:
[1] = biological target: T1, human recombinant serotonin (5-Hydroxytryptamine) 5-HT2A receptor (Homo sapiens, UniProt P28223); experiment: Serotonin 5-HT2A radioligand binding ([3H]Ketanserin); details: for inhibition at 1 µM: read-out: Inhibition of ligand binding, Serotonin 5-HT2A (percent inhibition of specific binding), compound at 1 μM; for inhibition at 0.1 µM: read-out: Inhibition of ligand binding, Serotonin 5-HT2A (percent inhibition of specific binding), compound at 0.1 μM
T1 construct: expressed in transfected cells; host or cells: Chinese hamster ovary (CHO-K1) cells
Experimental: Compounds of the invention were incubated with 0.5 nM [^3H]Ketanserin for 60 min. at 25° C. Non-specific binding was estimated in the presence of 1 μM Mianserin. Receptor proteins were filtered and washed, the filters were then counted to determine [^3H]Ketanserin specifically bound.

[2] = biological target: human recombinant serotonin (5-Hydroxytryptamine) 5-HT7 receptor (Homo sapiens, UniProt P34969); experiment: Serotonin 5-HT7 radioligand binding ([3H]LSD); details: for inhibition at 1 µM: read-out: Inhibition of ligand binding, Serotonin 5-HT7 (percent inhibition of specific binding)
Excerpt: Receptor proteins were filtered and washed, the filters were then counted to determine [^3H]LSD specifically bound.

[3] = biological target: T2, human recombinant adrenergic α1D receptor (Homo sapiens, UniProt P25100); experiment: Adrenergic α1D radioligand binding ([3H]Prozosin); details: compound at 1 μM
T2 construct: expressed in transfected cells; host or cells: human embryonic kidney (HEK-293) cells
T2 sequence (P25100 1-572): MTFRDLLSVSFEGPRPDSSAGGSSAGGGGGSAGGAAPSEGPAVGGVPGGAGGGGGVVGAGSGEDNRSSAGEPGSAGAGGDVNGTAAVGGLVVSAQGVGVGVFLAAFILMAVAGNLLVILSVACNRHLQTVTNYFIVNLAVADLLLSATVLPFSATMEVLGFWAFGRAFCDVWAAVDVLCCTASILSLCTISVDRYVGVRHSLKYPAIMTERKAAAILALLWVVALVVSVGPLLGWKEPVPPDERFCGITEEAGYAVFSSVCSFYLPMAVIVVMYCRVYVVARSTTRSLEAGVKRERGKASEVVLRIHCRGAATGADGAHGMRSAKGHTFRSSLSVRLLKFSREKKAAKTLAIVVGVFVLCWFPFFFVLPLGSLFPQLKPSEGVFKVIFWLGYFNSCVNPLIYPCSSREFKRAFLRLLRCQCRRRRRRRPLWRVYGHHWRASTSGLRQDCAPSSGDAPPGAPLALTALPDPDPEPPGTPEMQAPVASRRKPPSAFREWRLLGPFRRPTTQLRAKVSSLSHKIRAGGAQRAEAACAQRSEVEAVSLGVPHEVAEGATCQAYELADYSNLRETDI
Experimental: Compounds of invention were incubated with 0.6 nM [^3H]Prozosin for 60 min. at 25° C. Non-specific binding was estimated in the presence of 10 μM phentolamine. Receptor proteins were filtered and washed, the filters were then counted to determine [^3H]Prozosin specifically bound. Compounds were screened at 1 μM or lower, using 1% DMSO as vehicle. Biochemical assay results are presented as the percent inhibition of specific binding in Table 9.

histamine receptor H1 = histamine receptor H1 (Homo sapiens, UniProt P35367); experiment: Histamine H1 radioligand binding ([3H]Pyrilamine); details: for inhibition at 1 µM: read-out: Histamine Binding (1 μM) H1, percent inhibition of specific binding, 1 μM
In short: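 Values are percent inhibition of specific [3H]pyrilamine (1.2 nM) binding with compounds at ≤1 μM (1% DMSO vehicle); 180 min incubation at 25 °C, pH 7.4 Tris buffer, on CHO-expressed human H1 receptor; 1 μM pyrilamine defined nonspecific binding, bound ligand counted after filtration.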

[4] = biological target: human dopamine D2L receptor (Homo sapiens, UniProt P14416); experiment: Dopamine D2L radioligand binding ([3H]Spiperone); details: percent inhibition of specific binding, compound at 1 μM; for inhibition at 1 µM: read-out: Inhibition of ligand binding, Dopamine D2L
Excerpt: Non-specific binding was estimated in the presence of […] Haloperidol. Receptor proteins were filtered and washed, the filters were then counted to determine [^3H]Spiperone specifically bound. […] Biochemical assay results are presented as the percent inhibition of specific binding in Table 9.

[5] = biological target: T3, human recombinant serotonin (5-Hydroxytryptamine) 5-HT2C receptor (Homo sapiens, UniProt P28335); experiment: Serotonin 5-HT2C radioligand binding ([3H]Mesulergine); details: for inhibition at 0.1 µM / inhibition at 1 µM: read-out: Inhibition of ligand binding, Serotonin 5-HT2C (percent inhibition of specific binding)
T3 construct: expressed in transfected cells; host or cells: Chinese hamster ovary (CHO-K1) cells
T3 sequence (P28335 33-458): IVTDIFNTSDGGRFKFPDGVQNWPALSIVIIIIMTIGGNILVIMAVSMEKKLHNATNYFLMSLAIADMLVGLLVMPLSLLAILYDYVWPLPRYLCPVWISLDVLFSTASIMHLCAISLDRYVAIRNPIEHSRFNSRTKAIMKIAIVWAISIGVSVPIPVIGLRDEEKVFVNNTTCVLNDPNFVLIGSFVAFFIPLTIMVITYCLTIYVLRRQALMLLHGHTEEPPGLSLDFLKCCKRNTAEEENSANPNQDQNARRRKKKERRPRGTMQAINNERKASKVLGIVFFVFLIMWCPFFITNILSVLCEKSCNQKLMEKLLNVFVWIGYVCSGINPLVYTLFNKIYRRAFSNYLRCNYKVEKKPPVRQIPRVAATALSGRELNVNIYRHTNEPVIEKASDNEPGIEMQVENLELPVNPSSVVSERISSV
In short: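 Compounds tested at 1 μM or lower (1% DMSO vehicle) for displacement of 1 nM [3H]Mesulergine over 60 min at 25° C. Specific binding determined by filtration counting, with 1 μM Mianserin defining non-specific binding; values are percent inhibition.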

[6] = percent inhibition of specific binding, read-out: Inhibition of ligand binding, Adrenergic α1D

T1 sequence (P28223 whole entry): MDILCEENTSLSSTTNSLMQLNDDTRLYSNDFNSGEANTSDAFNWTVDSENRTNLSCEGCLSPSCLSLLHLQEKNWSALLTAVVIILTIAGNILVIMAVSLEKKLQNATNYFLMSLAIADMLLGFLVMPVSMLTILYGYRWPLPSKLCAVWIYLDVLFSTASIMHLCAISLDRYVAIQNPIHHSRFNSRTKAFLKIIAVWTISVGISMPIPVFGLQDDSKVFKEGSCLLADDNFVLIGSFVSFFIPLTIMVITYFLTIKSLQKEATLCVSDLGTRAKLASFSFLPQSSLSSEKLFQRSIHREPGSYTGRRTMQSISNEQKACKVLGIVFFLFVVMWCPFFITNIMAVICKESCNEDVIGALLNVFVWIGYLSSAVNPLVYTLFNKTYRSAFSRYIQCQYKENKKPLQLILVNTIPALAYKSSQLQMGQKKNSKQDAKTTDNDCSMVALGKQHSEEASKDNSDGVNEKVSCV
human dopamine D2L receptor, sequence (P14416 whole entry): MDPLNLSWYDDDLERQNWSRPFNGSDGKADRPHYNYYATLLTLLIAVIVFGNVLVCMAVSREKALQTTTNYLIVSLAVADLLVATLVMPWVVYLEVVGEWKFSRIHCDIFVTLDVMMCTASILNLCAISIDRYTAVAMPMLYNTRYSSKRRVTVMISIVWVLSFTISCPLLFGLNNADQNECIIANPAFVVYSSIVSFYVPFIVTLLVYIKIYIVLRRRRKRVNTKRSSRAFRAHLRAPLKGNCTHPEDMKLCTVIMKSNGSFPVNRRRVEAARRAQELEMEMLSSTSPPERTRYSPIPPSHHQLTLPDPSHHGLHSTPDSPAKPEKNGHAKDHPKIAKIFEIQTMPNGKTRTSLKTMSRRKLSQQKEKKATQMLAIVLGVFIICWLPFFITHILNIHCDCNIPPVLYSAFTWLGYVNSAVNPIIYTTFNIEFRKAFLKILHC
histamine receptor H1, sequence (P35367 whole entry): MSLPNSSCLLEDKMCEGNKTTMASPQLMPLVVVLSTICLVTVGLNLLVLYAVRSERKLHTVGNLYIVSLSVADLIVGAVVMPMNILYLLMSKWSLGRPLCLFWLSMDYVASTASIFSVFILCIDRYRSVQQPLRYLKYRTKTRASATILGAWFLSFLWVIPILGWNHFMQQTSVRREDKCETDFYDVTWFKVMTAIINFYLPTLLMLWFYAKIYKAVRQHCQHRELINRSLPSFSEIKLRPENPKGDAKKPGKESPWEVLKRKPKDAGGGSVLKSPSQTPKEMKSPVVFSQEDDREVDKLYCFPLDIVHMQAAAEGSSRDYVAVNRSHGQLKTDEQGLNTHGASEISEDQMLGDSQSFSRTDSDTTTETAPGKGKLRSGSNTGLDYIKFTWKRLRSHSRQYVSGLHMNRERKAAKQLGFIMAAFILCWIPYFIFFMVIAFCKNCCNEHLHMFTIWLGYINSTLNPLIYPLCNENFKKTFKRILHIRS
human recombinant serotonin (5-Hydroxytryptamine) 5-HT7 receptor, sequence (P34969 whole entry): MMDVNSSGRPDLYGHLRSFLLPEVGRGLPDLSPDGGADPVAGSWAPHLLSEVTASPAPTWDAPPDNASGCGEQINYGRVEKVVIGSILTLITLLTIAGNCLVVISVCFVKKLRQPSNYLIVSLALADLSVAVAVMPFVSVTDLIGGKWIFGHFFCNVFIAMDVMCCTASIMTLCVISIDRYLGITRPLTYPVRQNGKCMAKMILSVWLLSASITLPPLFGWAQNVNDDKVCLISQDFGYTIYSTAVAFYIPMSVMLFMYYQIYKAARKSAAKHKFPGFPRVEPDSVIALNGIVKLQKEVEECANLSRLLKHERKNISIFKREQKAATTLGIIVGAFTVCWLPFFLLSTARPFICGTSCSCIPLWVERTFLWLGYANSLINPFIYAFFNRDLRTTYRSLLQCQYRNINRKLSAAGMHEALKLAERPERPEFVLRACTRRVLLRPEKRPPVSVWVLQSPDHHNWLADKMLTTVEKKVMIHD

Compound	inhibition at 1 µM [1]	inhibition at 1 µM ([2]; compound at 1 μM)	inhibition at 1 µM [3, 6]	inhibition at 1 µM (histamine receptor H1)	inhibition at 1 µM [4]	inhibition at 0.1 µM ([5]; compound at 0.1 μM)	inhibition at 1 µM ([5]; compound at 1 μM)	inhibition at 0.1 µM [1]	Inhibition of ligand binding, Serotonin 5-HT7 (percent inhibition of specific binding) ([2]; compound at 1 μM, 1 µM)	Inhibition of ligand binding, Adrenergic α1D ([3]; percent inhibition of specific binding, 1 µM)	Histamine Binding (1 μM) H1, percent inhibition of specific binding (histamine receptor H1)	Inhibition of ligand binding, Dopamine D2L ([4]; 1 µM)	Inhibition of ligand binding, Serotonin 5-HT2A (percent inhibition of specific binding) ([1]; compound at 0.1 μM, 0.1 µM)	Inhibition of ligand binding, Serotonin 5-HT2A (percent inhibition of specific binding) ([1]; compound at 1 μM, 1 µM)	Inhibition of ligand binding, Serotonin 5-HT7 (percent inhibition of specific binding) ([2]; compound at 0.1 μM, 0.1 µM)	Inhibition of ligand binding, Serotonin 5-HT2C (percent inhibition of specific binding) ([5]; compound at 0.1 μM, 0.1 µM)	Inhibition of ligand binding, Serotonin 5-HT2C (percent inhibition of specific binding) ([5]; compound at 1 μM, 1 µM)	inhibition at 1 µM ([3]; read-out: Inhibition of ligand binding, Adrenergic α1D (percent inhibition of specific binding))
Cc1ccc(C(O)Cn2c3c(c4cc(C)ccc42)CN(C)CC3)cc1 (racemic) [Compound 43, racemic-2-(1,2,3,4-tetrahydro-2,8-dimethylpyrido[4,3-b]indol-5-yl)-1-p-tolylethanol]	100%	98%	87%	81%	65%	81%	96%											
CCN1CCc2c(c3ccccc3n2CC(O)c2ccc(C)cc2)C1 (racemic) [Compound 44, racemic-2-(2-ethyl-1,2,3,4-tetrahydropyrido[4,3-b]indol-5-yl)-1-p-tolylethanol]	80%	42%	35%	54%			36%											
CCN1CCc2c(c3cc(C)ccc3n2CC(O)c2ccc(C)cc2)C1 (racemic) [Compound 51, racemic-2-(2-ethyl-1,2,3,4-tetrahydro-8-methylpyrido[4,3-b]indol-5-yl)-1-p-tolylethanol]	102%	91%	89%	100%		43%	84%											
Cc1ccc(C(O)Cn2c3c(c4ccccc42)CN(C)CC3)cc1 (racemic) [Compound 53, racemic-2-(1,2,3,4-tetrahydro-2-methylpyrido[4,3-b]indol-5-yl)-1-p-tolylethanol]	100%	87%	55%	47%			82%											
CC(=Cn1c2c(c3cc(Cl)ccc31)CN(C)CC2)c1ccc(Cl)cc1Cl (stereo in doubt) [Compound 111, (Z)-8-chloro-5-(2-(2,4-dichlorophenyl)prop-1-enyl)-2,3,4,5-tetrahydro-2-methyl-1H-pyrido[4,3-b]indole]	99%					95%	100%	86%	102%	47%	73% and 74%	27% and 29%						
CN1CCc2c(c3cc(Cl)ccc3n2CC(C)(O)c2ccc(F)cc2)C1 (stereo not shown) [Compound 45, 1-(8-chloro-1,2,3,4-tetrahydro-2-methylpyrido[4,3-b]indol-5-yl)-2-(4-fluorophenyl)propan-2-ol]	99%	92%	61%	65%	34%	88%	95%	86%			73%							
C/C(=C\n1c2c(c3cc(C)ccc31)CN(C)CC2)c1ccncc1 [Compound 88, (E)-2,3,4,5-tetrahydro-2,8-dimethyl-5-(2-(pyridin-4-yl)prop-1-enyl)-1H-pyrido[4,3-b]indole]	98%	93%	78%				99%	87%					95%	101%	75% and 97%	74% and 96%	100%	
Cc1ccc2c(c1)c1c(n2CC#Cc2ccccn2)CCN(C)C1 [Compound No. 500, 2,3,4,5-tetrahydro-2,8-dimethyl-5-(3-(pyridin-2-yl)prop-2-ynyl)-1H-pyrido[4,3-b]indole]	40%	48%		70%			77%											11%
